Reference: patent US11123279B2, “Cosmetic composition and the use thereof for regulating skin quality” (priority 2016, dated 2021)
Values after ≈ are worked out from the molar mass of the structure shown. Read-outs that look alike come from different tables or passages of the source. Values belong to the compound of their own block, whether it stands above or below them.

Legend:
B16 melanocyte cells [1] = assay: B16 cell melanogenesis inhibition assay; format: cell-based
B16 melanocyte cells [2] = system: B16 melanocyte cells
Description: Cytotoxicity activities to determine cell viability were obtained as follows. B16 melanocyte cells were plated in a 24 well-plate one day before the actual assay. Fresh DMEM (with phenol red) containing 10% FBS was added to dilute the cells to an appropriate density, 0.025×10^6 cells for a 24 well-plate. 1 ml of the DMEM with 10% FBS was added to each well. […] The well-plate with treated cells were then left in the incubator at 37° C., 5% CO2 for approximately 16 hours overnight. The media was removed and 1 ml of PBS solution was added into each well to wash and remove the colour of the phenol red in the DMEM. Then, 1 ml of fresh PBS was added into each individual well. 15 μl of the prepared Resazurin stock solution was added (8 μg/ml) into each well containing the compounds. The Resazurin stock solution was prepared by adding 800 μg of Resazurin sodium salt in 10 ml of PBS (pH 7.4) to make a concentration of 80 μg/ml, which was further diluted by adding 0.1 ml of the 80 μg/ml solution to 0.9 ml of PBS to make 8 μg/ml of stock solution. The well-plates were incubated at 37° C. for 2 hours. The plate was immediately read, after 2 hours, using a BioTek Synergy HTX multi-mode reader at an emission and excitation wavelength of 600 nm and 528 nm respectively, with a gain of 35. The results were automatically recorded in an excel spreadsheet.

Pseudomonas aeruginosa = assay: Antimicrobial activity, resistance of cream to microbial contamination; format: cell-based; conditions: tested individually at 0.05%
[3] = system: arm skin of Southeast Asian women; conditions: in vivo
Text: The cream base used for blending the active ingredients contained the ingredients as follows: Aqua, Butyrospermum parkii, caprylic/capric triglyceride, C12-15 alkyl benzoate, cetearyl isononanoate, cyclomethicone, butylene glycol, hydroxyethyl acrylate, sodium dimethyl taurate copolymer, Aloe barbadensis leaf juice.

[4] = Viscosity measurement of creams; format: physicochemical; conditions: 0.5 wt % in base cream of 25,000 mPa·s
Description: Rheological properties of the creams with different cosmetic compositions were evaluated based on viscosity measurements. The individually tested samples were dissolved in a base cream (control) with a viscosity of 25,000 mPa·s. The cream base used for blending the active ingredients contained the ingredients as follows: Aqua, Butyrospermum parkii, caprylic/capric triglyceride, C12-15 alkyl benzoate, cetearyl isononanoate, cyclomethicone, butylene glycol, hydroxyethyl acrylate, sodium dimethyl taurate copolymer, Aloe barbadensis leaf juice. The cream base was white in colour, with a pH ranges between 4.5 and 5.5.

Indian and Chinese skins = assay: Skin tone (a*, b*) and general skin quality observation (Examples 5 and 6); format: in vivo, human; conditions: Chinese skin and especially Indian skin
Description: […]. The a* (rosy-red tone) and b* (yellow tone) components of the skin tone were monitored.
Over the 28-day period, the a* (rosy-red tone) component of Indian skin increased, and the b* (yellow tone) component of Indian and Chinese skins decreased. […] Before starting the study, all subjects' melanin index, L*a*b* and ITA value were measured at the tested site using Mexameter MX18 and Courage+Khazaka (CK) Colorimeter CL 400. Photos and instrument measurements were taken at the start of the testing (Day 0), during the testing (D2, D5, D7, D9, D12) and after the testing (D14, D21 and D28). […] Each subject applied 5 products on the left arm. Subjects wore an arm sleeve over part of the right arm for the occluded site, so as to provide 2 negative controls, one occluded from light and UV-radiation (right arm) and one covered under fabric (left arm) so as to understand the effect of melanogenesis even when no light is passing through. The tested areas were evaluated on their skin melanin index, L*a*b* and ITA after D2, D5, D7, D9, D12, D14, D21 and D28 of application using Mexameter MX 18 and CK Colorimeter CL400.
As part of the same experiment above, general skin quality effects were also observed.

[5] = system: arm skin of Southeast Asian women; assay: Subject self-assessment questionnaire and preference in the skin lightening study (Example 1); format: in vivo, human; conditions: by day 14 of the trial
Text: Table V illustrates the ranking of the various compositions from best to worst based on user satisfaction measurements. The questionnaire was formulated to include the questions such as: 1) what were your first impressions after application of the various compositions? 2) How quickly do you expect to see a lightening effect? 3) Are you satisfied with the quality of skin lightening achieved? 4) How many days after the first application of the various compositions did you observe a lightening effect? 5) are you satisfied with the quality of skin lightening achieved? 6) How many days after the first application of the test product did you observe a lightening effect?

[6] = B16 cultured melanocyte cells, 3 days incubation, melanin OD at 480 nm
[7] = Melanocyte, 72 h, B16 cultured melanocyte cells, 3 days incubation, melanin OD at 480 nm; read-out: IC50, melanogenesis inhibition
[8] = Melanocyte, 72 h; read-out: IC50, melanogenesis inhibition

Compound: CC1=CC(=O)[N-]S(=O)(=O)O1.[K+] [Acesulphame K (ASK), Acesulphame K (Potassium Acesulphame)]
IC50 (B16 melanocyte cells [1]; Melanocyte, 72 h, read-out: IC50, melanogenesis inhibition): 58 µg/mL

IC50, melanogenesis inhibition (B16 melanocyte cells [1]; [6]): 262 µg/mL (≈ 1450 µM)
Compound: CC(=O)Oc1ccccc1C(=O)O [Acetylsalicylic Acid, Acetyl Salicylic Acid]

IC50, melanogenesis inhibition (B16 melanocyte cells [1]; [6]): 77 µg/mL (≈ 496 µM) | IC50 (B16 melanocyte cells [1]; [7]): 59 to 262 µg/mL (≈ 380 to 1690 µM)
Compound: O=C(O)c1cc(O)[nH]c(=O)c1 [Citrazinic Acid, Citrazinic acid]

IC50 (B16 melanocyte cells [1]; [7]): 73 µg/mL (≈ 414 µM)
Compound: O=C1O[C@H]([C@H](O)CO)C(O)=C1O [Erythorbic Acid]

IC50, melanogenesis inhibition (B16 melanocyte cells [1]; [6]): 59 µg/mL (≈ 421 µM) | IC50 (B16 melanocyte cells [1]; [7]): 59 to 262 µg/mL (≈ 421 to 1870 µM)
Compound: CCc1occc(=O)c1O [Ethyl Maltol]
concentrations resulting in cell toxicity (B16 melanocyte cells [2]; mouse): greater than 100 μM

IC50 (B16 melanocyte cells [1]; [8]): 56 µg/mL (≈ 371 µM)
Compound: Nc1nc2[nH]cnc2c(=O)[nH]1 [Guanine]

IC50 (B16 melanocyte cells [1]; [7]): 70 µg/mL
Compound: Nc1nc2c(ncn2[C@@H]2O[C@H](COP(=O)(O)O)[C@@H](O)[C@H]2O)c(=O)[nH]1 [Guanosine Monophosphate, Guanosine Mono- phosphate]

IC50 (B16 melanocyte cells [1]; [7]): 70 µg/mL (≈ 514 µM)
Compound: O=c1[nH]cnc2[nH]cnc12 [Hypoxanthine]

Compound: O=c1[nH]c2ccccc2c(=O)o1 [Isatoic Anhydride]
IC50 (B16 melanocyte cells [1]; [8]): 132 µg/mL (≈ 809 µM)

IC50 (B16 melanocyte cells [1]; [7]): 51 µg/mL (≈ 359 µM)
Compound: O=c1cc(CO)occ1O [Kojic acid (Standard), Kojic acid, reference compound]

IC50 (B16 melanocyte cells [1]; [7]): 65 µg/mL (≈ 515 µM)
Compound: Cc1occc(=O)c1O [Maltol, 3-hydroxy-2-methyl-4H-pyran-4-one]
inhibition of the growth of P. aeruginosa (Pseudomonas aeruginosa): completely inhibited | cytotoxic activities on intact human skin [3]: no real cytotoxic activities | cytotoxic activities on B16 cells (B16 melanocyte cells [2]): no real cytotoxic activities

IC50 (B16 melanocyte cells [1]; [7]): 89 µg/mL (≈ 605 µM)
Compound: O=C1NC(=O)c2ccccc21 [Phthalimide]

Compound: O=C1NS(=O)(=O)c2ccccc21 [Saccharin, 2H-1lamda 6,2-benzothiazol-1,1,3-trione]
cytotoxic activities on B16 cells (B16 melanocyte cells [2]): no real cytotoxic activities

IC50 (B16 melanocyte cells [1]; [7]): 37 µg/mL (≈ 205 µM)
Compound: Cn1cnc2c1c(=O)[nH]c(=O)n2C [Theobromine]

IC50 (B16 melanocyte cells [1]; [7]): 143 µg/mL (≈ 1280 µM)
Compound: O=c1cc[nH]c(=O)[nH]1 [Uracil]

Compound: O=C1O[C@H]([C@@H](O)CO)C(O)=C1O[C@H]1O[C@H](CO)[C@@H](O)[C@H](O)[C@H]1O [ascorbic acid-2-glucoside (AA2G), ascorbic acid-2-glucoside]
viscosity of the cream [4]: 26,000 mPa·s

Compound: NC(=O)c1cccnc1 [niacinamide]
effects on a* and b* skin tone compared with the maltol/saccharin cream (Indian and Chinese skins): diametrically opposite effects | subjects who observed and reported lightening of their skin [5]: 82%

Compound: Dehydroacetic Acid [Dehydroacetic Acid (DHAA)]
IC50, melanogenesis inhibition (B16 melanocyte cells [1]): 73 µg/mL
